Data from patent publication US11596639B2, “Substituted indole Mcl-1 inhibitors” (Vanderbilt University, priority 2016, dated 2023).

Legend:
[1] = tested on: H929 human cancer cell lines; experiment: Cellular viability / proliferation (Cell TiterGlo, 72 h); format: cell-based; conditions: Homo sapiens, NCI-H929, 72 h, read-out: GI50 on cellular proliferation of H929 human cancer cell lines, H929 cells, 72 h, Cell TiterGlo, 10% FBS
Method in brief: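 Cells were seeded at 1,000 cells/well in medium with 10% FBS and dosed 24 h later with a 2-fold serial dilution of compound (top concentration 50 μM, final DMSO <1%).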

Mcl-1 = Mcl-1 (Homo sapiens (Human), UniProt Q07820); experiment: TR-FRET binding assay, FITC-Bak peptide and MBP-tagged Mcl-1; conditions: read-out: Ki for Inhibition of Mcl-1 by TR-FRET assay
Sequence of Mcl-1 (Q07820 172-327): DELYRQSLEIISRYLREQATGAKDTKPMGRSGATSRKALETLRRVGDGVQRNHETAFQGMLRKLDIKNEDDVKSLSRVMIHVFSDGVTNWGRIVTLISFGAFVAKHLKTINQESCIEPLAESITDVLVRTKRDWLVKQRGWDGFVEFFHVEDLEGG
Procedure: Compounds are diluted in DMSO in a 16-point, semilog serial dilution scheme. […] The plate was mixed and incubated for 3 hours at room temperature. […] TR-FRET signal is plotted and IC50 and Ki values are calculated in the same manner as the fluorescence polarization anisotropy based competition assays.

Compound | GI50 [1] | Ki (Mcl-1)
COCCn1cc(N2C[C@@H](C)n3c(c(CCCOc4cc(C)c(Cl)c(C)c4)c4ccc(Cl)c(-c5c(C)nc(CN6CCN(C)CC6)nc5C)c43)C2=O)c2cc(C(=O)O)ccc21 [Example 559, (R)-3-(7-chloro-10-(3-(4-chloro-3,5-dimethylphenoxy)propyl)-6-(4,6-dimethyl-2-((4-methylpiperazin-1-yl)methyl)pyrimidin-5-yl)-4-methyl-1-oxo-3,4-dihydropyrazino[1,2-a]indol-2(1H)-yl)-1-(2-methoxyethyl)-1H-indole-5-carboxylic acid] | 430 nM | < 0.2 nM
Cc1cc(OCCCc2c3n(c4c(-c5c(C)nn(C)c5C)c(Cl)ccc24)[C@H](C)CN(c2cc(OCCOC(C)C)cc4c(C(=O)O)cn(Cc5ccccn5)c24)C3=O)cc(C)c1Cl [Example 606, (R)-7-(7-chloro-10-(3-(4-chloro-3,5-dimethylphenoxy)propyl)-4-methyl-1-oxo-6-(1,3,5-trimethyl-1H-pyrazol-4-yl)-3,4-dihydropyrazino[1,2-a]indol-2(1H)-yl)-5-(2-isopropoxyethoxy)-1-(pyridin-2-ylmethyl)-1H-indole-3-carboxylic acid] | 600 nM | 0.47 nM
Cc1cc(OCCCc2c3n(c4c(-c5c(C)nn(C)c5C)c(Cl)ccc24)[C@H](C)CN(c2cn(Cc4ccncc4)c4ccc(C(=O)O)cc24)C3=O)cc(C)c1Cl [Example 555, (R)-3-(7-chloro-10-(3-(4-chloro-3,5-dimethylphenoxy)propyl)-4-methyl-1-oxo-6-(1,3,5-trimethyl-1H-pyrazol-4-yl)-3,4-dihydropyrazino[1,2-a]indol-2(1H)-yl)-1-(pyridin-4-ylmethyl)-1H-indole-5-carboxylic acid] | 1300 nM | 0.26 nM
COCCn1c(C(=O)O)cc2cc(C)cc(N3C[C@@H](C)n4c(c(CCCOc5cc(C)c(Cl)c(C)c5)c5ccc(Cl)c(-c6c(C)n[nH]c6C)c54)C3=O)c21 [Example 718, (R)-7-(7-chloro-10-(3-(4-chloro-3,5-dimethylphenoxy)propyl)-6-(3,5-dimethyl-1H-pyrazol-4-yl)-4-methyl-1-oxo-3,4-dihydropyrazino[1,2-a]indol-2(1H)-yl)-1-(2-methoxyethyl)-5-methyl-1H-indole-2-carboxylic acid] | 410 nM | < 0.2 nM
Cc1cc(OCCCc2c3n(c4c(-c5c(C)nn(C)c5C)c(Cl)ccc24)[C@H](C)CN(c2cn(CC(=O)N(C)C)c4ccc(-c5ncccn5)cc24)C3=O)cc(C)c1Cl [Example 637, (R)-2-(3-(7-Chloro-10-(3-(4-chloro-3,5-dimethylphenoxy)propyl)-4-methyl-1-oxo-6-(1,3,5-trimethyl-1H-pyrazol-4-yl)-3,4-dihydropyrazino[1,2-a]indol-2(1H)-yl)-5-(pyrimidin-2-yl)-1H-indol-1-yl)-N,N-dimethylacetamide] | 530 nM | 1.3 nM
Cc1cc(OCCCc2c3n(c4c(-c5c(C)nn(C)c5C)c(Cl)ccc24)[C@H](C)CN(c2cc(CN4CCOCC4)cc4cc(C(=O)O)n(C)c24)C3=O)cc(C)c1Cl [Example 623, (R)-7-(7-chloro-10-(3-(4-chloro-3,5-dimethylphenoxy)propyl)-4-methyl-1-oxo-6-(1,3,5-trimethyl-1H-pyrazol-4-yl)-3,4-dihydropyrazino[1,2-a]indol-2(1H)-yl)-1-methyl-5-(morpholinomethyl)-1H-indole-2-carboxylic acid] | < 200 nM | < 0.2 nM
Cc1cc(OCCCc2c3n(c4c(-c5c(C)nn(C)c5C)c(Cl)ccc24)[C@H](C)CN(c2cn(C)c4ccc(-n5nccn5)nc24)C3=O)cc(C)c1Cl [Example 664, (R)-7-Chloro-10-(3-(4-chloro-3,5-dimethylphenoxy)propyl)-4-methyl-2-(1-methyl-5-(2H-1,2,3-triazol-2-yl)-1H-pyrrolo[3,2-b]pyridin-3-yl)-6-(1,3,5-trimethyl-1H-pyrazol-4-yl)-3,4-dihydropyrazino[1,2-a]indol-1(2H)-one] | 580 nM | 0.64 nM
CC(=O)N1CCN(C(=O)c2cc(N3C[C@@H](C)n4c(c(CCCOc5cc(C)c(Cl)c(C)c5)c5ccc(Cl)c(-c6c(C)nn(C)c6C)c54)C3=O)c3c(c2)cc(C(=O)O)n3C)CC1 [Example 629, (R)-5-(4-acetylpiperazine-1-carbonyl)-7-(7-chloro-10-(3-(4-chloro-3,5-dimethylphenoxy)propyl)-4-methyl-1-oxo-6-(1,3,5-trimethyl-1H-pyrazol-4-yl)-3,4-dihydropyrazino[1,2-a]indol-2(1H)-yl)-1-methyl-1H-indole-2-carboxylic acid] | 560 nM | < 0.2 nM
Cc1cc(OCCCc2c3n(c4c(-c5c(C)nn(C)c5C)c(Cl)ccc24)[C@H](C)CN(c2cc(OCc4ccccn4)cc4cc(C(=O)O)n(C)c24)C3=O)cc(C)c1Cl [Example 481, (R)-7-(7-Chloro-10-(3-(4-chloro-3,5-dimethylphenoxy)propyl)-4-methyl-1-oxo-6-(1,3,5-trimethyl-1H-pyrazol-4-yl)-3,4-dihydropyrazino[1,2-a]indol-2(1H)-yl)-1-methyl-5-(pyridin-2-ylmethoxy)-1H-indole-2-carboxylic acid] | 240 nM | < 0.2 nM
Cc1cc(OCCCc2c3n(c4c(-c5c(C)nn(C)c5C)c(Cl)ccc24)[C@H](C)CN(c2cn(C)c4ccc(-n5ncnn5)cc24)C3=O)cc(C)c1Cl [Example 689, (R)-7-Chloro-10-(3-(4-chloro-3,5-dimethylphenoxy)propyl)-4-methyl-2-(1-methyl-5-(2H-tetrazol-2-yl)-1H-indol-3-yl)-6-(1,3,5-trimethyl-1H-pyrazol-4-yl)-3,4-dihydropyrazino[1,2-a]indol-1(2H)-one] | 1700 nM | 2.1 nM
Cc1cc(OCCCc2c3n(c4c(-c5c(C)ncnc5C)c(Cl)ccc24)[C@H](C)CN(c2cn(C)c4ncc(C(=O)O)nc24)C3=O)cc(C)c1Cl [Example 644, (R)-7-(7-chloro-10(3-(4-chloro-3,5-dimethylphenoxy)propyl)-6-(4,6-dimethylpyrimidin-5-yl)-4-methyl-1-oxo-3,4-dihydropyrazino[1,2-a]indol-2(1H)-yl)-5-methyl-5H-pyrrolo[2,3-b]pyrazine-2-carboxylic acid] | 1900 nM | < 0.2 nM
Cc1cc(N2C[C@@H](C)n3c(c(CCCOc4cc(C)c(Cl)c(C)c4)c4ccc(Cl)c(-c5c(C)nn(C)c5C)c43)C2=O)c2c(c1)cc(C(=O)O)n2Cc1cc(N2CCCCC2)ccn1 [Example 504, (R)-7-(7-Chloro-10-(3-(4-chloro-3,5-dimethylphenoxy)propyl)-4-methyl-1-oxo-6-(1,3,5-trimethyl-1H-pyrazol-4-yl)-3,4-dihydropyrazino[1,2-a]indol-2(1H)-yl)-5-methyl-1-((4-(piperidin-1-yl)pyridin-2-yl)methyl)-1H-indole-2-carboxylic acid] | 1000 nM | 0.23 nM
Cc1cc(OCCCc2c3n(c4c(-c5c(C)nn(C)c5C)c(Cl)ccc24)[C@H](C)CN(c2cc(NC(=O)CN4CCCCC4)cc4c(C(=O)O)cn(C)c24)C3=O)cc(C)c1Cl [Example 533, (R)-7-(7-Chloro-10-(3-(4-chloro-3,5-dimethylphenoxy)propyl)-4-methyl-1-oxo-6-(1,3,5-trimethyl-1H-pyrazol-4-yl)-3,4-dihydropyrazino[1,2-a]indol-2(1H)-yl)-1-methyl-5-(2-(piperidin-1-yl)acetamido)-1H-indole-3-carboxylic acid] | 1300 nM | 0.69 nM
Cc1cc(OCCCc2c3n(c4c(-c5c(C)nn(C)c5C)c(Cl)ccc24)[C@H](C)CN(c2cn(CCN4CCCC4)c4ccc(-c5ncccn5)cc24)C3=O)cc(C)c1Cl [Example 567, (R)-7-Chloro-10-(3-(4-chloro-3,5-dimethylphenoxy)propyl)-4-methyl-2-(5-(pyrimidin-2-yl)-1-(2-(pyrrolidin-1-yl)ethyl)-1H-indol-3-yl)-6-(1,3,5-trimethyl-1H-pyrazol-4-yl)-3,4-dihydropyrazino[1,2-a]indol-1(2H)-one] | 930 nM | 9.6 nM
Cc1cc(OCCCc2c3n(c4c(-c5c(C)nn(C)c5C)c(Cl)ccc24)[C@H](C)CN(c2cn(CCN4CCCCC4)c4ccc(C(=O)O)cc24)C3=O)cc(C)c1Cl [Example 543, (R)-3-(7-Chloro-10-(3-(4-chloro-3,5-dimethylphenoxy)propyl)-4-methyl-1-oxo-6-(1,3,5-trimethyl-1H-pyrazol-4-yl)-3,4-dihydropyrazino[1,2-a]indol-2(1H)-yl)-1-(2-(piperidin-1-yl)ethyl)-1H-indole-5-carboxylic acid] | 1800 nM | 2.9 nM
COCCOC1CCN(Cc2cc(N3C[C@@H](C)n4c(c(CCCOc5cc(C)c(Cl)c(C)c5)c5ccc(Cl)c(-c6c(C)nn(C)c6C)c54)C3=O)c3c(c2)cc(C(=O)O)n3C)CC1 [Example 650, (R)-7-(7-chloro-10-(3-(4-chloro-3,5-dimethylphenoxy)propyl)-4-methyl-1-oxo-6-(1,3,5-trimethyl-1H-pyrazol-4-yl)-3,4-dihydropyrazino[1,2-a]indol-2(1H)-yl)-5-((4-(2-methoxyethoxy)piperidin-1-yl)methyl)-1-methyl-1H-indole-2-carboxylic acid] | 210 nM | < 0.2 nM
COc1cc(N2C[C@@H](C)n3c(c(CCCOc4cc(C)c(Cl)c(C)c4)c4ccc(Cl)c(-c5c(C)ncnc5C)c43)C2=O)c2c(c1)cc(C(=O)O)n2C [Example 535, (R)-7-(7-Chloro-10-(3-(4-chloro-3,5-dimethylphenoxy)propyl)-6-(4,6-dimethylpyrimidin-5-yl)-4-methyl-1-oxo-3,4-dihydropyrazino[1,2-a]indol-2(1H)-yl)-5-methoxy-1-methyl-1H-indole-2-carboxylic acid] | 280 nM | < 0.2 nM
